Data from publication PMC7816196, “Antitubercular 2-Pyrazolylpyrimidinones: Structure–Activity Relationship and Mode-of-Action Studies” (Journal of Medicinal Chemistry, 2021).
In brackets after ≈: the same amount, converted by molar mass. Like-named read-outs stand apart in the source and are kept apart here.

Assays:
mmpL3-TetON = assay: microbe, parasite or virus in culture; type: cell-based, M. tuberculosis; conditions: for MIC / MIC50: Mycobacterium tuberculosis
[1] = Mouse pharmacokinetics, i.v. and oral
WT H37Rv = assay: microbe, parasite or virus in culture; type: cell-based, M. tuberculosis; conditions: Mycobacterium tuberculosis
in vivo = conditions: male, C57/BL6, mouse
[2] = Kinetic aqueous solubility at pH 7.4; type: physicochemical
Method: 3) In vitro ADME - assays
The kinetic solubility assay was p erfo rmed using a miniaturised shake flask method. 10 mM stock solutions of each of the test compounds were used to prepare calibration standards (10-220 µM) in DMSO. The same 10 mM stock soluti ons were accurately dispensed in duplicat e into 96-well plates and the DMSO dried down (MiVac GeneVac, 90 min, 37 °C). Thereafter, the samples were reconstituted (200 µM) in phosphate buffered saline (pH 7. 4) and shaken (20 hours,25 °C). The solutions were centrifuged, and the supernatant was an alysed by means of HPLC-DAD (Agilent 1200 Rapid Resolution HPLC with a diode array detector). Best fit calibration curves were constructed using the calibration standards, which were used to determine the aqueous samples’ solubility.4
The metabolic stability assay was performed in dup licate in a 96-well micro t itre plate. The test compounds (0.1 µM) were incubated individually in mouse, rat and pooled human liver microsomes (final protei n concentration of 0.4 m g/mL; XenoTech, Lenexa, KS), suspended in 0.1M phosphate buffer (pH 7.4) for predetermined time points, in the presence and abs ence of the cofactor NADPH (1 mM). Reactions were quenched by adding 300 µL of ice cold acetonitrile containing internal standard (carbamazepine, 0.0236 µg/mL). The samples were centrifuged and test in the supernatant were an alysed by means of LC-MS/MS ((Agilent Rapid Resolution HPLC, AB SCIEX 4500 MS). The rel ative loss of parent compound over time w as monitored and plots (concentration vs. time) were prepared per compound to determine the first order rate constant for compound depletion. This was in turn used to calculate h alf-life, in vitro intrinsic clearance and in vivo hepatic extraction ratio. Metabolite search es were not conducted during the met abolic stability assay.5

Mtb H37Rv = assay: MIC against Mtb H37Rv, Alamar Blue broth microdilution; type: cell-based, Mycobacterium tuberculosis
[3] = male, C57/BL6, mouse, whole blood, iv, 2 mg/kg
[4] = male, C57/BL6, mouse, whole blood, po, 20 mg/kg
[5] = phosphate buffered saline, pH 7.4, aqueous (kinetic) solubility at pH 7.4, read-out: Solubility
[6] = Mycobacterium tuberculosis, H37RV, 168 h
[7] = Mycobacterium tuberculosis, H37RV, supplement csv, medium not stated

Cc1cc(Nc2ccc(F)cc2)n(-c2nc(C(F)(F)F)cc(=O)[nH]2)n1 [Compound 40, 2-(5-((4-Fluorophenyl)amino)-3-methyl-1H-pyrazol-1-yl)-6-(trifluoromethyl)pyrimidin-4(3H)-one]
change in MIC on transcriptional silencing of mmpL3 (mmpL3-TetON): no significant change | MIC (mmpL3-TetON; experiment: Follow-Up): 0.56 µM (≈ 0.198 µg/mL) | MIC50 (mmpL3-TetON; experiment: Follow-Up): 0.36 µM (≈ 0.127 µg/mL) | MIC (mmpL3-TetON; experiment: Initial): 0.34 µM (≈ 0.12 µg/mL) | MIC50 (mmpL3-TetON; experiment: Initial): 0.18 µM (≈ 0.0636 µg/mL) | AUC(0-inf) [1, 3]: 256 µM·h | CLint scaled [1, 3]: 34 mL/min/kg | Cmax [1, 3]: 33.1 µM | Vd [1, 3]: 0.1 L/kg | clearance [1, 3]: 0.4 mL/min/kg | bioavailability ([1]; male, C57/BL6, mouse, whole blood, oral, 20 mg/kg): ~40% | AUC(0-inf) [1, 4]: 1090 µM·h | Cmax [1, 4]: 104 µM | bioavailability [1, 4]: 44% | tolerability ([1]; mouse, i.v. 2 mg/kg or oral 20 mg/kg): well tolerated | MIC (WT H37Rv; experiment: Follow-Up): 0.51 µM (≈ 0.18 µg/mL) | MIC50 (WT H37Rv; experiment: Follow-Up): 0.4 µM (≈ 0.141 µg/mL) | MIC (WT H37Rv; experiment: Initial): 0.54 µM (≈ 0.191 µg/mL) | MIC50 (WT H37Rv; experiment: Initial): 0.3 µM (≈ 0.106 µg/mL) | half-life (in vivo; iv, 2 mg/kg): 4 h | half-life (in vivo; po, 20 mg/kg): 6.1 h

Cc1nn(-c2nc(C(F)(F)F)cc(=O)[nH]2)c(C)c1Br [Compound 48, 2-(4-Bromo-3,5-dimethyl-1H-pyrazol-1-yl)-6-(trifluoromethyl)pyrimidin-4(3H)-one]
solubility at 20 h [2, 5]: ≥ 200 µM

COCCNc1cc(C)nn1-c1nc(C(F)(F)F)cc(=O)[nH]1 [Compound 38, 2-(5-((2-Methoxyethyl)amino)-3-methyl-1H-pyrazol-1-yl)-6-(trifluoromethyl)pyrimidin-4(3H)-one]
change in MIC on transcriptional silencing of mmpL3 (mmpL3-TetON): no significant change | MIC50 (mmpL3-TetON; experiment: Follow-Up): 0.78 µM (≈ 0.247 µg/mL) | MIC (mmpL3-TetON; experiment: Initial): 1.1 µM (≈ 0.349 µg/mL) | MIC50 (mmpL3-TetON; experiment: Initial): 0.47 µM (≈ 0.149 µg/mL) | solubility at 20 h [2, 5]: ≥ 200 µM | MIC (WT H37Rv; experiment: Follow-Up): 1.5 µM (≈ 0.476 µg/mL) | MIC50 (WT H37Rv; experiment: Follow-Up): 0.87 µM (≈ 0.276 µg/mL) | MIC (WT H37Rv; experiment: Initial): 1.1 µM (≈ 0.349 µg/mL) | MIC50 (WT H37Rv; experiment: Initial): 0.46 µM (≈ 0.146 µg/mL) | MIC (Mtb H37Rv; [6]): 1.5 to 2 µM (≈ 0.476 to 0.635 µg/mL)

Cc1cc(N)n(-c2nc(C(F)(F)F)cc(=O)[nH]2)n1 [Compound 33, 2-(5-Amino-3-methyl-1H-pyrazol-1-yl)-6-(trifluoromethyl)pyrimidin-4(3H)-one]
solubility at 20 h [2, 5]: ≥ 200 µM

Cc1cc(C)n(-c2nc(C(=O)Nc3ccc(F)cc3)cc(=O)[nH]2)n1 [Compound 26, 2-(3,5-Dimethyl-1H-pyrazol-1-yl)-N-(4-fluorophenyl)-6-oxo-1,6-dihydropyrimidine-4-carboxamide]
solubility at 20 h [2, 5]: ≥ 200 µM

Cc1cc(Nc2ccc(F)cc2F)n(-c2nc(C(F)(F)F)cc(=O)[nH]2)n1 [Compound 41, 2-(5-((2,4-Difluorophenyl)amino)-3-methyl-1H-pyrazol-1-yl)-6-(trifluoromethyl)pyrimidin-4(3H)-one]
MIC (Mtb H37Rv; [6]): 0.2 µM (≈ 0.0743 µg/mL)

Cc1cc(Nc2ccc(C#N)cc2)n(-c2nc(C(F)(F)F)cc(=O)[nH]2)n1 [Compound 42, 4-((3-Methyl-1-(6-oxo-4-(trifluoromethyl)-1,6-dihydropyrimidin-2-yl)-1H-pyrazol-5-yl)amino)benzonitrile]
MIC (Mtb H37Rv; [6]): 9 µM (≈ 3.24 µg/mL) | MIC (Mtb H37Rv; [7]): 9 µM (≈ 3.24 µg/mL)

Cc1cc(C)n(-c2nc(-c3ccccc3)cc(=O)n2C)n1 [Compound 4, 2-(3,5-Dimethyl-1H-pyrazol-1-yl)-3-methyl-6-phenylpyrimidin-4(3H)-one]
solubility at 20 h [2, 5]: ≥ 200 µM

CC(C)=CCC/C(C)=C/CNCCNC1C2CC3CC(C2)CC1C3 (stereo not drawn) [SQ109, reference compound]
MIC (mmpL3-TetON; experiment: Follow-Up): 0.19 µM (≈ 0.0628 µg/mL) | MIC50 (mmpL3-TetON; experiment: Follow-Up): 0.1 µM (≈ 0.0331 µg/mL) | MIC (mmpL3-TetON; experiment: Initial): 0.27 µM (≈ 0.0893 µg/mL) | MIC50 (mmpL3-TetON; experiment: Initial): 0.071 µM (≈ 0.0235 µg/mL) | MIC (WT H37Rv; experiment: Follow-Up): 0.98 µM (≈ 0.324 µg/mL) | MIC50 (WT H37Rv; experiment: Follow-Up): 0.54 µM (≈ 0.179 µg/mL) | MIC (WT H37Rv; experiment: Initial): 0.99 µM (≈ 0.327 µg/mL) | MIC50 (WT H37Rv; experiment: Initial): 0.39 µM (≈ 0.129 µg/mL)

Cc1cc(C)n(-c2nc(-c3ccc(F)cc3)cc(=O)[nH]2)n1 [Compound 19, 2-(3,5-Dimethyl-1H-pyrazol-1-yl)-6-(4-fluorophenyl)pyrimidin-4(3H)-one]
MIC (Mtb H37Rv; [7]): 1 µM (≈ 0.284 µg/mL)

Cn1ccnc1-c1nc(-c2ccccc2)cc(=O)[nH]1 [Compound 18, 2-(1-Methyl-1H-imidazole-2-yl)-6-phenylpyrimidin-4(1H)-one]
solubility at 20 h [2, 5]: ≥ 200 µM

Cc1cc(NCCO)n(-c2nc(C(F)(F)F)cc(=O)[nH]2)n1 [Compound 37, 2-(5-((2-Hydroxyethyl)amino)-3-methyl-1H-pyrazol-1-yl)-6-(trifluoromethyl)pyrimidin-4(3H)-one]
solubility at 20 h [2, 5]: ≥ 200 µM

Cc1nn(-c2nc(C(F)(F)F)cc(=O)[nH]2)c(C)c1N1CCOCC1 [Compound 50, 2-(3,5-Dimethyl-4-morpholino-1H-pyrazol-1-yl)-6-(trifluoromethyl)pyrimidin-4(3H)-one]
MIC (Mtb H37Rv; [7]): 6 µM (≈ 2.06 µg/mL)

Cc1cc(CN(C)C)nn1-c1nc(C(F)(F)F)cc(=O)[nH]1 [Compound 52, 2-(3-((Dimethylamino)methyl)-5-methyl-1H-pyrazol-1-yl)-6-(trifluoromethyl)pyrimidin-4(3H)-one]
solubility at 20 h [2, 5]: ≥ 200 µM

2-(3-Methyl-5-oxo-2,5-dihydro-1H-pyrazol-1-yl)-6-phenylpyrimidin-4(1H)-one [Compound 13]
solubility at 20 h ([2]; aqueous (kinetic) solubility at pH 7.4, read-out: Solubility): 190 µM | MIC (Mtb H37Rv): >125 µM | MIC (Mtb H37Rv; supplement csv, medium not stated): >125 µM

Cc1cc(Nc2ccc(N3CCOCC3)cn2)n(-c2nc(C(F)(F)F)cc(=O)[nH]2)n1 [Compound 46, 2-(3-Methyl-5-((5-morpholinopyridin-2-yl)amino)-1H-pyrazol-1-yl)-6-(trifluoromethyl)pyrimidin-4(3H)-one]
MIC (Mtb H37Rv; [6]): 2 µM (≈ 0.843 µg/mL) | MIC (Mtb H37Rv; [7]): 2 µM (≈ 0.843 µg/mL)

Cc1cc(Nc2ccc(C(=O)N(C)C)cc2)n(-c2nc(C(F)(F)F)cc(=O)[nH]2)n1 [Compound 43, N,N-Dimethyl-4-((3-Methyl-1-(6-oxo-4-(trifluoromethyl)-1,6-dihydropyrimidin-2-yl)-1H-pyrazol-5-yl)amino)benzamide]
solubility at 20 h [2, 5]: ≥ 200 µM

Cc1cc(O)nc(-n2nc(C)cc2C)n1 [Compound 11, 2-(3,5-Dimethyl-1H-pyrazol-1-yl)-6-methylpyrimidin-4(3H)-one]
loss in activity (Mtb H37Rv; CH3 or CF3 at R1 instead of phenyl): 10–15 fold

Cc1cc(-c2ccccc2)n(-c2nc(C(F)(F)F)cc(=O)[nH]2)n1 [Compound 32, 2-(3-Methyl-5-phenyl-1H-pyrazol-1-yl)-6-(trifluoromethyl)pyrimidin-4(3H)-one]
solubility at 20 h [2, 5]: ≥ 200 µM

Cc1cc(NCCN(C)C)n(-c2nc(C(F)(F)F)cc(=O)[nH]2)n1 [Compound 36, 2-(5-((2-(Dimethylamino)ethyl)amino)-3-methyl-1H-pyrazol-1-yl)-6-(trifluoromethyl)pyrimidin-4(3H)-one]
solubility at 20 h [2, 5]: ≥ 200 µM

COc1cc(-c2ccccc2)nc(-n2nc(C)cc2C)n1 [Compound 3, 2-(3,5-Dimethyl-1H-pyrazol-1-yl)-4-methoxy-6-phenylpyrimidine]
solubility at 20 h [2, 5]: ≥ 200 µM

CCNc1cc(C)nn1-c1nc(C(F)(F)F)cc(=O)[nH]1 [Compound 34, 2-(5-(Ethylamino)-3-methyl-1H-pyrazol-1-yl)-6-(trifluoromethyl)pyrimidin-4(3H)-one]
MIC (Mtb H37Rv; [7]): 6 µM (≈ 1.72 µg/mL)

CC[C@@H](CO)NCCN[C@@H](CC)CO [Ethambutol, reference compound]
MIC (mmpL3-TetON; experiment: Follow-Up): 4.9 µM (≈ 1 µg/mL) | MIC50 (mmpL3-TetON; experiment: Follow-Up): 1.9 µM (≈ 0.388 µg/mL) | MIC (mmpL3-TetON; experiment: Initial): 1.6 µM (≈ 0.327 µg/mL) | MIC50 (mmpL3-TetON; experiment: Initial): 1.3 µM (≈ 0.266 µg/mL) | MIC (WT H37Rv; experiment: Follow-Up): 3.8 µM (≈ 0.776 µg/mL) | MIC50 (WT H37Rv; experiment: Follow-Up): 1.4 µM (≈ 0.286 µg/mL) | MIC (WT H37Rv; experiment: Initial): 2.4 µM (≈ 0.49 µg/mL) | MIC50 (WT H37Rv; experiment: Initial): 0.98 µM (≈ 0.2 µg/mL)

Cc1cc(NC2CCOCC2)n(-c2nc(C(F)(F)F)cc(=O)[nH]2)n1 [Compound 39, 2-(3-Methyl-5-((tetrahydro-2H-pyran-4-yl)amino)-1H-pyrazol-1-yl)-6-(trifluoromethyl)pyrimidin-4(3H)-one]
MIC (Mtb H37Rv; [6]): 1.5 to 2 µM (≈ 0.515 to 0.687 µg/mL) | MIC (Mtb H37Rv; [7]): 1 µM (≈ 0.343 µg/mL)

CCc1cc(C)nn1-c1nc(C(F)(F)F)cc(=O)[nH]1 [Compound 30, 2-(5-Ethyl-3-methyl-1H-pyrazol-1-yl)-6-(trifluoromethyl)pyrimidin-4(3H)-one]
solubility at 20 h [2, 5]: ≥ 200 µM

Cc1cc(C)n(-c2nc(-c3cccnc3)cc(=O)[nH]2)n1 [Compound 21, 2-(3,5-Dimethyl-1H-pyrazol-1-yl)-6-(pyridin-3-yl)pyrimidin-4(3H)-one]
solubility at 20 h [2, 5]: ≥ 200 µM

Cc1cc(Nc2ccncc2)n(-c2nc(C(F)(F)F)cc(=O)[nH]2)n1 [Compound 44, 2-(3-Methyl-5-(pyridin-4-ylamino)-1H-pyrazol-1-yl)-6-(trifluoromethyl)pyrimidin-4(3H)-one]
solubility at 20 h ([2]; phosphate buffered saline, pH 7.4, supplement csv, pH 7.4, read-out: SolubilitypH 7.4): 22 µM (≈ 7.4 µg/mL)
